Assay results from PMC7037682, “Herb–Drug Interaction of Red Ginseng Extract and Ginsenoside Rc with Valsartan in Rats” (Molecules, 2020).
Where two headings read alike, the source gives them in different places.

Columns and labels:
[1] = target: T1, OATP1B1 (Homo sapiens, UniProt Q9Y6L6); experiment: Inhibition of OATP1B1-mediated [3H]estrone-3-sulfate uptake in HEK293-OATP1B1 cells
T1 sequence (Q9Y6L6 1-691): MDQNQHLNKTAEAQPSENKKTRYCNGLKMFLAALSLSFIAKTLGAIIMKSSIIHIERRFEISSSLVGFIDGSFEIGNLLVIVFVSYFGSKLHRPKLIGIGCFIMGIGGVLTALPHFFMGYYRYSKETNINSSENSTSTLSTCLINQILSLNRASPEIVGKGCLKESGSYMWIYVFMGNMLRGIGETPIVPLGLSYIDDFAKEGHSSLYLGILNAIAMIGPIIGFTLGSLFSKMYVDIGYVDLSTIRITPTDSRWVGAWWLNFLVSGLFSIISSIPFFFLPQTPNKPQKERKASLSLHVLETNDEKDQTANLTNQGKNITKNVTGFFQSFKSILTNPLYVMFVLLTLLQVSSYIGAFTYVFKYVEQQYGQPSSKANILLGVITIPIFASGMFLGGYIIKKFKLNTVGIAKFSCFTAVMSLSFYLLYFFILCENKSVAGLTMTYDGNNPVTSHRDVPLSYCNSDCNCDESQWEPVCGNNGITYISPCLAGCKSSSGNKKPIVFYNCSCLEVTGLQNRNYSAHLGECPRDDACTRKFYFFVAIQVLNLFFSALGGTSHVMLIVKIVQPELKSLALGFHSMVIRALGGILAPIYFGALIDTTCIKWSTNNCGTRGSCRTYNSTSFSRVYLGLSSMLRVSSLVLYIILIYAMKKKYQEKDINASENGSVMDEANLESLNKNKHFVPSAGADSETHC
Description: (§1) HEK293 cells overexpressing the OCT1, OCT2, OAT1, OAT3, OATP1B1, and OATP1B3 transporters (HEK293-OCT1, -OCT2, -OAT1, -OAT3, -OATP1B1, and -OATP1B3, respectively) and HEK293-mock cells (Corning Life Sciences; Woburn, MA, USA) were used and characterized as previously described.
(§2) HEK293 cells overexpressing drug transporters and HEK293-mock cells were seeded in poly-D-lysine-coated 96-well plates at a density of 10^5 cells/well and were cultured in DMEM supplemented with 10% FBS, 5 mM non-essential amino acids, and 2 mM sodium butyrate in a humidified atmosphere with 8% CO2 at 37 °C.
(§3) To examine the effects of ginsenosides and typical inhibitors on transporter activity, aliquots (100 μL) of HBSS containing the probe substrate and ginsenosides or typical inhibitors were added to the cells after aspirating pre-incubated HBSS. The concentrations and probe substrates were as follows: 0.1 μM [^3H]MPP^+ for OCT1 and OCT2, 0.1 μM [^3H]PAH for OAT1, 0.1 μM [^3H]ES for OAT3 and OATP1B1, and 0.1 μM [^3H]EG for OATP1B3. […] Then the uptake of probe substrates into HEK293-mock cells and HEK293-OCT1, -OCT2, -OAT1, -OAT3, -OATP1B1, and -OATP1B3 cells in the presence and absence of typical inhibitor or each ginsenoside with previously described concentration range was measured for 5 min. Immediately after placing the plates on ice, the cells were washed three times with 100 μL of ice-cold HBSS, followed by lysing with 50 μL of 10% SDS solution and mixing with 150 μL of Optiphase cocktail solution (Perkin Elmer Inc., Boston, MA, USA). The radioactivity of the probe substrates in the cells was determined using a liquid scintillation counter.
(§4) In the inhibition studies, the uptake rate of substrate by HEK293 cells overexpressing the respective transporters was used as the control (100%) and the uptake rate of substrates in the presence of typical inhibitors or ginsenosides expressed as a percentage of the control. The inhibition data were fitted to an inhibitory effect model using Sigma plot (version 10.0; Systat Software Inc., San Jose, CA, USA). IC50 value indicated the half-maximal inhibitory concentration of the inhibitor.

[2] = Plasma pharmacokinetics of ginsenosides in rats after 1-week repeated RGE
Description: The rats were randomly divided into the control and RGE groups. The RGE group received a RGE suspension (1.5 g/mL/kg/day, in distilled water) for 7 days via oral gavage. The control group received distilled water for 7 days via oral gavage. After 1 h following the last RGE treatment, valsartan was injected intravenously to both groups via the tail vein at 1 mg/mL/kg (dissolved in DMSO: saline = 2:8, v/v). […] After centrifugation of the blood samples at 16,000× g for 10 min, aliquots (50 μL each) of plasma samples were stored at −80 °C until the analysis of ginsenosides and valsartan.
The residue was reconstituted with 100 μL of 70% methanol consisting of 0.1% formic acid. An aliquot (20 μL) from the sample was injected into the LC-MS/MS system.
After freezing the aqueous layer at −80 °C for 2 h, the upper organic layer was transferred to a clean tube and evaporated to dryness. […] An aliquot (20 μL) from the sample was injected into the LC-MS/MS system. The samples were eluted through an Omega Polar C18 column (2.1 mm × 100 mm, 3 µm particle size) (Phenomenex, Torrance, CA, USA) using a mobile phase consisting of 0.1% formic acid in water: 0.1% formic acid in methanol (15:85, v/v) at a flow rate of 0.2 mL/min.
Pharmacokinetic parameters were calculated from plasma concentration-time profile using non-compartment analysis of WinNonlin (version 5.1; Pharsights, Cary, NC, USA). The statistical significance was assessed by t-test using Statistical Package for the Social Sciences (version 24.0; SPSS Inc., Chicago, IL, USA).

[3] = target: T2, OAT3 (Homo sapiens, UniProt Q8TCC7); experiment: Inhibition of OAT3-mediated [3H]ES uptake in HEK293-OAT3 cells
T2 sequence (Q8TCC7 1-542): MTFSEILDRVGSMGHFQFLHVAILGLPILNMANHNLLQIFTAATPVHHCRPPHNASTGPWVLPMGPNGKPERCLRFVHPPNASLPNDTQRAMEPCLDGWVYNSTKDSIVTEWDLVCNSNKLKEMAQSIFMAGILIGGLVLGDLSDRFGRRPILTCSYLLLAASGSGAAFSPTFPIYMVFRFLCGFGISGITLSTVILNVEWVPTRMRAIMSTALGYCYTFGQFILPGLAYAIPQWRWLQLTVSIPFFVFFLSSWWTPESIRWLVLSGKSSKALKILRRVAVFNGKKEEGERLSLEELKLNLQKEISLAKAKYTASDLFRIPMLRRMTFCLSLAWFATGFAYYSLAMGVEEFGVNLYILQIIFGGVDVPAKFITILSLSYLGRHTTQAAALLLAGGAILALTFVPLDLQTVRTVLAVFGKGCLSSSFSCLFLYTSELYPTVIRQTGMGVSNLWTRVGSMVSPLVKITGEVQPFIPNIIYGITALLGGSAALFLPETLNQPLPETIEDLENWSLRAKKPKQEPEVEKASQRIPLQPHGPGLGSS
Description: as §1, §2, §3, §4

[4] = rat plasma, after RGE 1.5 g/kg/day po for 1 week

IC50 [1] [µM] | AUC ([2]; rat, plasma, po, 1.5 g/kg/day) [ng·h/mL] | Cmax ([2]; rat, plasma, po, 1.5 g/kg/day) [ng/mL] | MRT ([2]; rat, plasma, po, 1.5 g/kg/day) [h] | Tmax ([2]; rat, plasma, po, 1.5 g/kg/day) [h] | half-life ([2]; rat, plasma, po, 1.5 g/kg/day) [h] | IC50 [3] [µM] | SMILES | IC50 OATP1B1 ([1]; HEK293-OATP1B1, 0.1 μM [3H]ES uptake, 5 min) | IC50 ([1]; read-out: IC50 OATP1B1, HEK293-OATP1B1, 0.1 μM [3H]ES uptake, 5 min) [µM] | detection in rat plasma ([2]; LC-MS/MS, after RGE 1.5 g/kg/day po for 1 week) | AUC ([2]; rat plasma, 0 to 48 h, after RGE 1.5 g/kg/day po for 1 week) [ng·h/mL] | Cmax [2, 4] [ng/mL] | MRT [2, 4] [h] | T1/2 [2, 4] [h] | Tmax [2, 4] [h] | maximum plasma concentration (molar) ([2]; rat plasma, after RGE 1.5 g/kg/day po for 7 days) [nM] | IC50 ([3]; read-out: IC50 OAT3, HEK293-OAT3, 0.1 μM [3H]ES uptake, 5 min) [µM]
68.2 | 455 ± 111 | 17.8 ± 2.34 | 17.1 ± 2.09 | 3.33 ± 1.15 | 16.9 ± 5.81 | > 100 | CC(C)=CCC[C@](C)(O[C@@H]1O[C@H](CO[C@@H]2O[C@H](CO)[C@@H](O)[C@H](O)[C@H]2O)[C@@H](O)[C@H](O)[C@H]1O)[C@H]1CC[C@]2(C)[C@@H]1[C@H](O)C[C@@H]1[C@@]3(C)CC[C@H](O[C@@H]4O[C@H](CO)[C@@H](O)[C@H](O)[C@H]4O[C@@H]4O[C@H](CO)[C@@H](O)[C@H](O)[C@H]4O)C(C)(C)[C@@H]3CC[C@]12C [Rb1, ginsenoside Rb1] |  |  |  |  |  |  |  |  |  | 
 |  |  |  |  |  |  | CC(C)=CCC[C@](C)(O)[C@H]1CC[C@]2(C)[C@@H]1[C@H](O)C[C@@H]1[C@@]3(C)CC[C@H](O)C(C)(C)[C@@H]3[C@@H](O)C[C@]12C [PPT, protopanaxatriol] | did not inhibit | > 100 | detected | 429.91 ± 105.75 | 16.97 ± 8.99 | 23.12 ± 2.26 | 46.38 ± 13.27 | 16.50 ± 12.48 | 38.5 | > 100
